Experiments:
THLE-2 = test: Cytotoxicity against human THLE2 cells assessed as reduction in cell viability after 72 hrs by MTS assay; assay type: cell-based; details: thle-2, 72 h
[1] = Metabolic stability in mouse liver microsomes assessed as parent compound remaining at 1 uM preincubated for 10 mins followed by NADP addition measured after 20 mins by LC-MS/MS analysis; assay type: ADME, microsome; details: read-out: Stability
[2] = Metabolic stability in human liver microsomes assessed as parent compound remaining at 1 uM preincubated for 10 mins followed by NADP addition measured after 20 mins by LC-MS/MS analysis; assay type: ADME, microsome; details: read-out: Stability

Structure (SMILES)	LC50 (THLE-2) [nM]	remaining at 20 min, 1 µM [1] [%]	remaining at 20 min, 1 µM [2] [%]
CCc1ccc(-c2cc(NC3CCN(C)CC3)c3cc(OC)c(OCCCN(C)C)cc3n2)o1	3520	–	–
COc1cc2c(NC3CC4CCC(C3)N4C)cc(-c3ccc(C)o3)nc2cc1OCCCN1CCCC1 (stereo not drawn)	4150	43.9	60.3
CCc1ccc(-c2cc(NCC3C4CCC3CN(C)C4)c3cc(OC)c(OCCCN4CCCC4)cc3n2)o1 (stereo not drawn)	< 164	–	–
COc1cc2c(NCC3CCN(C(C)C)CC3)cc(-c3ccc(C)o3)nc2cc1OCCCN1CCCC1	777	–	–
COc1cc2c(NC3CCN(C)CC3)cc(-c3ccc(C)o3)nc2cc1OCCCN1CCCC1	1780	–	–
COc1cc2c(NC3CC4(CCN(C)CC4)C3)cc(-c3ccc(C)o3)nc2cc1OCCCN1CCCC1	992	40.6	68.6
Cc1ccc(-c2cc(NC3CCN(C)CC3)c3cc(Cl)c(OCCCN4CCCC4)cc3n2)o1	2310	81.7	81.7
COc1cc2c(NC3CC4(CCN(C)C4)C3)cc(-c3ccc(C)o3)nc2cc1OCCCN1CCCC1 (stereo not drawn)	8380	–	–
COc1cc2c(NC3CC4(CCN(C(C)C)CC4)C3)cc(-c3ccc(C)o3)nc2cc1OC1CC2(C1)CN(C)C2 (stereo not drawn)	4650	–	–
CCc1ccc(-c2cc(NC3CCN(C)CC3)c3cc(OC)c(OCCCN4CCCC4)cc3n2)o1	2320	–	–
COc1cc2c(NC3CCN(C)CC3)cc(-c3ccc(C)o3)nc2cc1OC1CC2(C1)CN(C)C2	698	43.3	49.8
COc1cc2c(NC3C4CCC3CN(C)C4)cc(-c3ccc(C)o3)nc2cc1OCCCN1CCCC1 (stereo not drawn)	527	–	–
COc1cc2c(NC3CC4(CCN(C(C)C)CC4)C3)cc(-c3ccc(C)o3)nc2cc1OCCCN1CCCC1	841	–	–
CCc1ccc(-c2cc(NCC3CCN(C)CC3)c3cc(OC)c(OCCCN4CCCC4)cc3n2)o1	954	59.1	69
CCc1ccc(-c2cc(NC3CCN(C)CC3)c3cc(OC)c(OCCCN4CCCCC4)cc3n2)o1	1380	–	–
COc1cc2c(NC3CC4(CCN(C)CC4)C3)cc(-c3ccc(C)o3)nc2cc1OCC1CCN(C)CC1	2530	–	–
COc1cc2c(NC3CCC34CCN(C)C4)cc(-c3ccc(C)o3)nc2cc1OCCCN1CCCC1 (stereo not drawn)	1980	–	–
COc1cc2c(NCC3CCN(C)CC3)cc(-c3ccc(C)o3)nc2cc1OCCCN1CCCC1	1300	–	–
CCc1ccc(-c2cc(NC3CCC34CCN(C)CC4)c3cc(OC)c(OCCCN4CCCC4)cc3n2)o1 (stereo not drawn)	517	–	–
COc1cc2c(NC3CCN(C)CC3)cc(-c3ccc(C)o3)nc2cc1OCC1CCN(C)CC1	1030	–	–
COc1cc2c(NC3CCN(C)C(=O)C3)cc(-c3ccc(C)o3)nc2cc1OCCCN1CCCC1 (stereo not drawn)	7950	71.9	82.7
COc1cc2c(NC3CCC34CCN(C)CC4)cc(-c3ccc(C)o3)nc2cc1OCCCN1CCCC1 (stereo not drawn)	731	53.3	80.4
CCc1ccc(-c2cc(NC3CCN(C)CC3)c3cc(OC)c(OCCCN4CCC5(CC5)C4)cc3n2)o1	2040	–	–
COc1cc2c(NC3CCN(C)CC3)cc(-c3ccc(C)o3)nc2cc1OCC1CCNCC1	24800	–	–

Source: ChEMBL document CHEMBL4190398, “Detailed Exploration around 4-Aminoquinolines Chemical Space to Navigate the Lysine Methyltransferase G9a and DNA Methyltransferase Biological Spaces” (J Med Chem, 2018)
